Experimental data published in publication PMC7675038, “A Single‐Stranded DNA‐Encoded Chemical Library Based on a Stereoisomeric Scaffold Enables Ligand Discovery by Modular Assembly of Building Blocks” (Advanced Science, 2020).

Target: T1, HSA, human serum albumin (Homo sapiens, UniProt P02768)
T1 construct: gene ALB
Experiment: fluorescence polarization, off-DNA
Assay type: binding

T1 sequence (P02768 25-609): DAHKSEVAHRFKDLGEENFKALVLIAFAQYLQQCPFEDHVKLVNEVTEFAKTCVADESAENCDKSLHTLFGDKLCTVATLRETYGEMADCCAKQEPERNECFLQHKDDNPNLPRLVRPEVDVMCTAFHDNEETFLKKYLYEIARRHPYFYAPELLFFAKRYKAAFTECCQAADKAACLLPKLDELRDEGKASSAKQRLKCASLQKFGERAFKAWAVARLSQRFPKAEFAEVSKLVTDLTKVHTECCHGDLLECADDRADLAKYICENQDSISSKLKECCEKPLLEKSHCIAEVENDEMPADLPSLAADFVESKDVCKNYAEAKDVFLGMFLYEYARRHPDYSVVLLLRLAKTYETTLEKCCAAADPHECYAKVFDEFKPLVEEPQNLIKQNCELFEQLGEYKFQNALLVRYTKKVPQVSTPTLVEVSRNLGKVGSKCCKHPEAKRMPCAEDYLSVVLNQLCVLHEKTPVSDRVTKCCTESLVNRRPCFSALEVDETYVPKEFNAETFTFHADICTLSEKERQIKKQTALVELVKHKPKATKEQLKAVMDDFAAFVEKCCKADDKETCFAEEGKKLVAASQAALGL

| Compound | Kd [µM] |
| --- | --- |
| Cc1ccc(C(=O)NCC(=O)N[C@@H](CCC(=O)N[C@@H](CCC(N)=O)C(=O)O)C(=O)N2CCc3nc(-c4ccccc4)ncc3C2)cc1 [compound 17, 17] | 5 ± 3 |
| Cc1ccc(C(=O)NCC(=O)N[C@H](CCC(=O)N[C@@H](CCC(N)=O)C(=O)O)C(=O)N2CCc3nc(-c4ccccc4)ncc3C2)cc1 [compound 16, 16] | 11 ± 2 |
